For experiment [1], the system named is spindle assembly checkpoint. Nature of the experiment: SAC-Formation - Paclitaxel-Induced Assay. In kind it is cell-based. Conditions: Homo sapiens; HeLa cells, paclitaxel 0.05 μM, 24 h, phosphorylated histone H3 on serine 10. The text has this: The spindle assembly checkpoint assures the proper segregation of chromosomes during mitosis. Upon entry into mitosis, chromosomes begin to condensate which is accompanied by the phosphorylation of histone H3 on serine 10. Dephosphorylation of histone H3 on serine 10 begins in anaphase and ends at early telophase. Accordingly, phosphorylation of histone H3 on serine 10 can be utilized as a marker of cells in mitosis. Nocodazole is a microtubule destabilizing substance. Paclitaxel is a microtubule stabilizing compound. Thus, nocodazole as well as paclitaxel interfere with microtubule dynamics and mobilize the spindle assembly checkpoint. […] The mitotic breakthrough can be detected by the decrease of cells with phosphorylation of histone H3 on serine 10. This decline is used as a marker to determine the capability of compounds of the present invention to induce a mitotic breakthrough. The typical morphological alteration of nuclei with a prematurely completed mitosis after SAC-inhibition can be monitored via image analysis routines supporting those findings.
The nocodazole and paclitaxel variations were used to focus on compounds that are capable of inhibiting a SAC induced by both microtubule destabilization as well as microtubule stabilization. When SAC inducing agents and compounds are given simultaneously, inhibitors that effectively block the SAC during formation or abrogation are identified. When cells are incubated with a SAC inducing agent and the SAC interfering compound is given after a defined time, inhibitors are identified that effectively block SAC abrogation.
Cultivated cells of the human cervical tumor cell line HeLa (ATCC CCL-2) were plated at a density of 1000 cells/well in a 1536-well microtiter plate in 2 μl PAA Ham's F12 Medium supplemented with 1% (v/v) glutamine, 1% (v/v) penicillin, 1% (v/v) streptomycin and 10% (v/v) fetal calf serum. After incubation overnight at 37° C., 10 μl/well paclitaxel at a final concentration of 0.05 μM were added to cells. Test compounds solubilized in dimethyl sulfoxide (DMSO) were added at various concentrations (0 μM, as well as in the range of 0.005 μM-20 μM; the final concentration of the solvent DMSO was 0.5% (v/v)). Cells were incubated for 24 h at 37° C. in the presence of test compounds in combination with paclitaxel. Thereafter, cells were fixed in 4% (v/v) paraformaldehyde in phosphate buffered saline (PBS) at 4° C. overnight then permeabilized in 0.1% (v/v) Triton X™ 100 in PBS at room temperature for 20 min and blocked in 0.5% (v/v) bovine serum albumin (BSA) in PBS at room temperature for 15 min. After washing with PBS, 5 μl/well antibody solution (anti-phospho-histone H3 clone 3H10, FITC; Millipore, Cat #16-222; 1:1000 dilution) was added to cells, which were incubated for 2 h at room temperature. Afterwards, cells were washed with PBS and 5 μl/well solution of HOECHST 33342 dye (5 μg/ml) was added to cells and cells were incubated 15 min at room temperature in the dark. Cells were washed twice with PBS then covered with PBS and stored at 4° C. until analysis. Images were acquired with a PERKIN ELMER OPERA™ High-Content Analysis reader. Images were analyzed with image analysis software MetaXpress™ from Molecular devices utilizing the Mitotic Index application module. In this assay both labels HOECHST 33342 and phosphorylated Histone H3 on serine 10 were measured. HOECHST 33342 labels the DNA and is used to count the cell number. The staining of phosphorylated Histone H3 on serine 10 determines the number of mitotic cells. […] Otherwise cells were arrested at G2/M phase of the cell cycle progression. The raw assay data were further analyzed by four-parametric hill equation using Genedata's Assay Analyzer and Condoseo software.

The next experiment deals with CDK2/CycE (Homo sapiens (Human), UniProt P24941). Briefly: CDK2/CycE kinase assay (TR-FRET). In kind it is biochemical. Conditions: 10 μM ATP; read-out: CDK2 avg (IC50 [mol/l]). The text has this: CDK2/CycE-inhibitory activity of compounds of the present invention was quantified employing the CDK2/CycE TR-FRET assay as described in the following paragraphs.
Recombinant fusion proteins of GST and human CDK2 and of GST and human CycE, expressed in insect cells (Sf9) and purified by Glutathion-Sepharose affinity chromatography, were purchased from ProQinase GmbH (Freiburg, Germany). As substrate for the kinase reaction biotinylated peptide biotin-Ttds-YISPLKSPYKISEG (C-terminus in amid form) was used which can be purchased e.g. form the company JERINI peptide technologies (Berlin, Germany).
For the assay 50 nl of a 100 fold concentrated solution of the test compound in DMSO was pipetted into a black low volume 384 well microtiter plate (Greiner Bio-One, Frickenhausen, Germany), 2 μl of a solution of CDK2/CycE in aqueous assay buffer [50 mM Tris/HCl pH 8.0, 10 mM MgCl2, 1.0 mM dithiothreitol, 0.1 mM sodium ortho-vanadate, 0.01% (v/v) Nonidet-P40 (Sigma)] were added and the mixture was incubated for 15 min at 22° C. to allow pre-binding of the test compounds to the enzyme before the start of the kinase reaction. Then the kinase reaction was started by the addition of 3 μl of a solution of adenosine-tri-phosphate (ATP, 16.7 μM=>final conc. in the 5 μl assay volume is 10 μM) and substrate (1.25 μM=>final conc. in the 5 μl assay volume is 0.75 μM) in assay buffer and the resulting mixture was incubated for a reaction time of 25 min at 22° C. The concentration of CDK2/CycE was adjusted depending of the activity of the enzyme lot and was chosen appropriate to have the assay in the linear range, typical concentrations were in the range of 130 ng/ml. The reaction was stopped by the addition of 5 μl of a solution of TR-FRET detection reagents (0.2 μM streptavidine-XL665 [Cisbio Bioassays, Codolet, France] and 1 nM anti-RB(pSer807/pSer811)-antibody from BD Pharmingen [#558389] and 1.2 nM LANCE EU-W1024 labeled anti-mouse IgG antibody [Perkin-Elmer, product no. AD0077, as an alternative a Terbium-cryptate-labeled anti-mouse IgG antibody from Cisbio Bioassays can be used]) in an aqueous EDTA-solution (100 mM EDTA, 0.2% (w/v) bovine serum albumin in 100 mM HEPES/NaOH pH 7.0).
The resulting mixture was incubated 1 h at 22° C. to allow the formation of complex between the phosphorylated biotinylated peptide and the detection reagents. Subsequently the amount of phosphorylated substrate was evaluated by measurement of the resonance energy transfer from the Eu-chelate to the streptavidine-XL. Therefore, the fluorescence emissions at 620 nm and 665 nm after excitation at 350 nm was measured in a TR-FRET reader, e.g. a Rubystar (BMG Labtechnologies, Offenburg, Germany) or a Viewlux (Perkin-Elmer). The ratio of the emissions at 665 nm and at […] was taken as the measure for the amount of phosphorylated substrate. The data were normalised (enzyme reaction without inhibitor=0% inhibition, all other assay components but no enzyme=100% inhibition).
For orientation: Time-resolved FRET reads energy transfer from a long-lived donor to a nearby acceptor.

Each structure is given as a SMILES string.

In the case of `COc1ccc(NC(=O)c2c(C)nsc2Nc2nccnc2C#N)cn1` [Example 24, 5-[(3-Cyanopyrazin-2-yl)amino]-N-(6-methoxypyridin-3-yl)-3-methyl-1,2-thiazole-4-carboxamide], the IC50 was 8500 nM in experiment [1] and above 20000 nM on CDK2/CycE.
Taken in the same sequence, the figures for `COc1ccc(NC(=O)c2c(C)nsc2Nc2cc(C#N)ccn2)cn1` [Example 25, 5-[(4-Cyanopyridin-2-yl)amino]-N-(6-methoxypyridin-3-yl)-3-methyl-1,2-thiazole-4-carboxamide] were 1200 nM and above 20000 nM.
Taken in the same sequence, the figures for `CCOC(=O)c1sc(Nc2snc(C)c2C(=O)Nc2ccccc2CC)nc1C` [Example 26, Ethyl 2-({4-[(2-ethylphenyl)carbamoyl]-3-methyl-1,2-thiazol-5-yl}amino)-4-methyl-1,3-thiazole-5-carboxylate] were 250 nM and above 20000 nM.
Take `Cc1nsc(Nc2cc(C#N)ccn2)c1C(=O)Nc1ccc(F)c(F)c1` [Example 27, 5-[(4-Cyanopyridin-2-yl)amino]-N-(3,4-difluorophenyl)-3-methyl-1,2-thiazole-4-carboxamide]: the IC50 is 170 nM in experiment [1] and above 20000 nM on CDK2/CycE.
Taken in the same sequence, the figures for `Cc1nsc(Nc2ccc(C#N)cn2)c1C(=O)Nc1ccc(F)c(F)c1` [Example 28, 5-[(5-Cyanopyridin-2-yl)amino]-N-(3,4-difluorophenyl)-3-methyl-1,2-thiazole-4-carboxamide] were 72 nM and above 20000 nM.
The matching figures for `CCOC(=O)c1cnc(Nc2snc(C)c2C(=O)Nc2ccc(OC)nc2)s1` [Example 29, Ethyl 2-({4-[(6-methoxypyridin-3-yl)carbamoyl]-3-methyl-1,2-thiazol-5-yl}amino)-1,3-thiazole-5-carboxylate]: 700 nM and above 20000 nM.
Taken in the same sequence, the figures for `CCOC(=O)c1sc(Nc2snc(C)c2C(=O)Nc2ccc(OC)nc2)nc1C` [Example 30, Ethyl 2-({4-[(6-methoxypyridin-3-yl)carbamoyl]-3-methyl-1,2-thiazol-5-yl}amino)-4-methyl-1,3-thiazole-5-carboxylate] were 320 nM and above 20000 nM.
Consider `COC(=O)c1ccc(Nc2snc(C)c2C(=O)Nc2ccc(OC)nc2)nc1` [Example 31, Methyl 6-({4-[(6-methoxypyridin-3-yl)carbamoyl]-3-methyl-1,2-thiazol-5-yl}amino)-nicotinate], for which the IC50 (in experiment [1]; at CDK2/CycE) was above 20000 nM in each case.
Regarding `COC(=O)c1cnc(Nc2snc(C)c2C(=O)Nc2ccc(OC)nc2)cn1` [Example 32, Methyl 5-({4-[(6-methoxypyridin-3-yl)carbamoyl]-3-methyl-1,2-thiazol-5-yl}amino)-pyrazine-2-carboxylate], the IC50 in experiment [1] was 1200 nM; on CDK2/CycE, above 20000 nM.
For the molecule `CCc1ccccc1NC(=O)c1c(C)nsc1Nc1cnc2cccc(C)c2n1` [Example 33, N-(2-Ethylphenyl)-3-methyl-5-[(8-methylquinoxalin-2-yl)amino]-1,2-thiazole-4-carboxamide], the IC50 in experiment [1] was 730 nM; on CDK2/CycE it was above 20000 nM.
Turning to `CCc1ccccc1NC(=O)c1c(C)nsc1Nc1nccnc1C#N` [Example 34, 5-[(3-Cyanopyrazin-2-yl)amino]-N-(2-ethylphenyl)-3-methyl-1,2-thiazole-4-carboxamide], the values for the IC50 (in experiment [1]; at CDK2/CycE) were 1600 nM and above 20000 nM, respectively.
On to `CCc1ccccc1NC(=O)c1c(C)nsc1Nc1nc(C)nc2ccccc12` [Example 35, N-(2-Ethylphenyl)-3-methyl-5-[(2-methylquinazolin-4-yl)amino]-1,2-thiazole-4-carboxamide], for which the IC50 in experiment [1] is 4600 nM; on CDK2/CycE, above 20000 nM.
The matching figures for `COc1ccc(NC(=O)c2c(C)nsc2Nc2ncccc2C#N)cn1` [Example 36, 5-[(3-Cyanopyridin-2-yl)amino]-N-(6-methoxypyridin-3-yl)-3-methyl-1,2-thiazole-4-carboxamide]: 3700 nM and above 20000 nM.
Taken in the same sequence, the figures for `COc1ccc(NC(=O)c2c(C)nsc2Nc2cccc(C#N)n2)cn1` [Example 37, 5-[(6-Cyanopyridin-2-yl)amino]-N-(6-methoxypyridin-3-yl)-3-methyl-1,2-thiazole-4-carboxamide] were 570 nM and above 20000 nM.
In the case of `CCc1ccccc1NC(=O)c1c(C)nsc1Nc1nc(C)nc2sccc12` [Example 38, N-(2-Ethylphenyl)-3-methyl-5-[(2-methylthieno[2,3-d]pyrimidin-4-yl)amino]-1,2-thiazole-4-carboxamide], the IC50 in experiment [1] was 580 nM; at CDK2/CycE, above 20000 nM.
Consider `COc1ccc(NC(=O)c2c(C)nsc2Nc2ccc(C#N)cn2)cn1` [Example 39, 5-[(5-Cyanopyridin-2-yl)amino]-N-(6-methoxypyridin-3-yl)-3-methyl-1,2-thiazole-4-carboxamide], for which the IC50 was 1300 nM in experiment [1] and above 20000 nM on CDK2/CycE.
Consider `Cc1nsc(Nc2cnc3ccccc3n2)c1C(=O)Nc1ccc(Cl)c(F)c1` [Example 40, N-(4-Chloro-3-fluorophenyl)-3-methyl-5-(quinoxalin-2-ylamino)-1,2-thiazole-4-carboxamide], for which the IC50 is 120 nM in experiment [1] and above 20000 nM on CDK2/CycE.
The matching figures for `CCc1ccccc1NC(=O)c1c(C)nsc1Nc1cnc2ccc(Cl)cc2n1` [Example 41, 5-[(7-Chloroquinoxalin-2-yl)amino]-N-(2-ethylphenyl)-3-methyl-1,2-thiazole-4-carboxamide]: 810 nM and above 20000 nM.
